Test results as given in patent publication US9115137B2, “2,3,4,5-tetrahydro-1H-pyrido[4,3-B]indole compounds and methods of use thereof” (priority 2008, dated 2015).
Read-outs that look alike come from different tables or passages of the source.

What was measured:
[1] = target: T1, human recombinant histamine H1 receptor (Homo sapiens, UniProt P35367); experiment: Histamine H1 radioligand binding ([3H]Pyrilamine); details: read-out: Histamine Binding (1 μM) H1, percent inhibition of specific binding
T1 construct: expressed in transfected cells; host or cells: CHO cells
Description: To evaluate in radioligand binding assays the activity of compounds of the invention, human recombinant histamine H1 receptor expressed in Chinese hamster ovary (CHO) cells (De Backer, M. D. et al., Biochem. Biophys. Res. Comm. 197(3):1601, 1993) in a modified Tris-HCl buffer (50 mM Tris-HCl, pH 7.4, 2 mM MgCl2, 100 mM NaCl, 250 mM Sucrose) was used. Compounds of the invention were incubated with 1.2 nM [^3H]Pyrilamine for 180 minutes at 25° C. Non-specific binding was estimated in the presence of 1 μM pyrilamine. Receptor proteins were filtered and washed, the filters were then counted to determine [^3H]Pyrilamine specifically bound. Compounds were screened at 1 μM, using 1% DMSO as vehicle. Biochemical assay results are presented as the percent inhibition of specific binding in Table 5.

[2] = target: T2, human recombinant histamine H2 receptor (Homo sapiens, UniProt P25021); experiment: Histamine H2 radioligand binding ([125I]aminopotentidine); details: read-out: Histamine Binding (1 μM) H2, percent inhibition of specific binding
T2 construct: expressed in transfected cells; host or cells: CHO-K1 cells
Description: To evaluate in radioligand binding assays the activity of compounds of the invention, human recombinant histamine H2 receptor expressed in Chinese hamster ovary (CHO) K1 cells (Ruat, M., Proc. Natl. Acad. Sci. USA. 87(5):1658, 1990) in a 50 mM Phosphate buffer, pH 7.4 was used. Compounds of the invention were incubated with 0.1 nM [^125I]aminopotentidine for 120 minutes at 25° C. Non-specific binding was estimated in the presence of 3 μM Tiotidine. Receptor proteins were filtered and washed, the filters were then counted to determine [^125I]Aminopotentidine specifically bound. Compounds were screened at 1 μM, using 1% DMSO as vehicle. Biochemical assay results are presented as the percent inhibition of specific binding in Table 5.

[3] = target: T3, human recombinant serotonin (5-Hydroxytryptamine) 5-HT2C receptor (Homo sapiens, UniProt P28335); experiment: Serotonin 5-HT2C radioligand binding ([3H]Mesulergine); details: read-out: Serotonin (1 μM) 5-HT2C, percent inhibition of specific binding
T3 construct: expressed in transfected cells; host or cells: CHO-K1 cells
T3 sequence (P28335 33-458): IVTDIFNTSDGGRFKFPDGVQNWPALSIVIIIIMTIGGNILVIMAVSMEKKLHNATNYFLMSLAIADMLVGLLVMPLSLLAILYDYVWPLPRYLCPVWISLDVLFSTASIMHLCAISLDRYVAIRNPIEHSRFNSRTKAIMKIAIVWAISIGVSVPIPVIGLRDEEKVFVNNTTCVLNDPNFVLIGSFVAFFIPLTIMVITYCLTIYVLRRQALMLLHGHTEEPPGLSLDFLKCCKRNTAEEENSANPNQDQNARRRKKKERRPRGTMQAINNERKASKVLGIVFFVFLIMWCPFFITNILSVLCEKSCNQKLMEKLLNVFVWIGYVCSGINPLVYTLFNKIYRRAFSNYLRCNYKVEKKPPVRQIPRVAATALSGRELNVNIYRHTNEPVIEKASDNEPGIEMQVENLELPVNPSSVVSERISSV
Description: To evaluate in radioligand binding assays the activity of compounds of the invention, human recombinant serotonin (5-Hydroxytryptamine) 5-HT2C receptor expressed in Chinese hamster ovary (CHO-K1) cells (Wolf, W. A. and Schutz, J. S., J. Neurochem. 69:1449, 1997) in a modified Tris-HCl buffer (50 mM Tris-HCl, pH 7.4, 0.1% Ascorbic Acid, 10 μM Pargyline) was used. Compounds of the invention were incubated with 1 nM [^3H]Mesulergine for 60 minutes at 25° C. Non-specific binding was estimated in the presence of 1 μM Mianserin. Receptor proteins were filtered and washed, the filters were then counted to determine [^3H]Mesulergine specifically bound. Compounds were screened at 1 μM or lower, using 1% DMSO as vehicle. Biochemical assay results are presented as the percent inhibition of specific binding in Table 7.

[4] = target: T4, human recombinant adrenergic α1D receptor (Homo sapiens, UniProt P25100); experiment: Adrenergic α1D radioligand binding ([3H]Prozosin); details: read-out: Adrenergic (1 μM) α1D, percent inhibition of specific binding
T4 construct: expressed in transfected cells; host or cells: HEK-293 cells
T4 sequence (P25100 1-572): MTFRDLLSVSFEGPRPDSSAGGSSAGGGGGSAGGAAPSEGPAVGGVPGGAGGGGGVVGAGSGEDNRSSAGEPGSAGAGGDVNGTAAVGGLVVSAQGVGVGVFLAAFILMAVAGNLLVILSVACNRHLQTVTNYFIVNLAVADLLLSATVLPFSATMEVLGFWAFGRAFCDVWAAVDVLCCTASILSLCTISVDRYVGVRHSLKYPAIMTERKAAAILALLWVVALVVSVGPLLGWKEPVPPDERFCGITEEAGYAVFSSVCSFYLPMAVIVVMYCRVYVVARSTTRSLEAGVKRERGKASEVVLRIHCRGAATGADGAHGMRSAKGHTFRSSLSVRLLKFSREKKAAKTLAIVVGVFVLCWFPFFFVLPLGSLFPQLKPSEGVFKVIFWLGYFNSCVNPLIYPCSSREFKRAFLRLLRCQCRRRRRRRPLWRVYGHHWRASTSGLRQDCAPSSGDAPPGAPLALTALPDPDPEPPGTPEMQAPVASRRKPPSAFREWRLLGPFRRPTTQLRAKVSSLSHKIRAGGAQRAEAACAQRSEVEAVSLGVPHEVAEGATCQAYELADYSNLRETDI
Description: To evaluate in radioligand binding assays the activity of compounds of the invention, human recombinant adrenergic α1D receptor expressed in human embryonic kidney (HEK-293) cells (Kenny, B. A. et al. Br. J. Pharmacol. 115(6):981, 1995) in a 50 mM Tris-HCl buffer, pH 7.4, was used. Compounds of invention were incubated with 0.6 nM [^3H]Prozosin for 60 minutes at 25° C. Non-specific binding was estimated in the presence of 10 μM phentolamine. Receptor proteins were filtered and washed, the filters were then counted to determine [^3H]Prozosin specifically bound. Compounds were screened at 1 μM or lower, using 1% DMSO as vehicle. Biochemical assay results are presented as the percent inhibition of specific binding in Table 6.

[5] = compound at 1 μM, HEK-293 cells

T1 sequence (P35367 whole entry): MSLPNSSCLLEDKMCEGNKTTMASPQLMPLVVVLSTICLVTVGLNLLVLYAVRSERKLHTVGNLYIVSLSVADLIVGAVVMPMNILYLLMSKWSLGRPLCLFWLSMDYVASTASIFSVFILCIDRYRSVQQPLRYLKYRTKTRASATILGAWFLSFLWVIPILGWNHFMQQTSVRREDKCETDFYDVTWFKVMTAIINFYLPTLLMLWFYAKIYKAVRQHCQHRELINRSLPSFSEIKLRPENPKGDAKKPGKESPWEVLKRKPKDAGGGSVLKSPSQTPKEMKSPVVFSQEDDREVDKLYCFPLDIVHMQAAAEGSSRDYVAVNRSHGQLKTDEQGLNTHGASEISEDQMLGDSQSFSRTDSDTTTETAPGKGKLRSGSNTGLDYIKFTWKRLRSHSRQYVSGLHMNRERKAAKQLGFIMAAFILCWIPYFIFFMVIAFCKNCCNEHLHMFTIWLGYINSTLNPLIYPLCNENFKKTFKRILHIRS
T2 sequence (P25021 whole entry): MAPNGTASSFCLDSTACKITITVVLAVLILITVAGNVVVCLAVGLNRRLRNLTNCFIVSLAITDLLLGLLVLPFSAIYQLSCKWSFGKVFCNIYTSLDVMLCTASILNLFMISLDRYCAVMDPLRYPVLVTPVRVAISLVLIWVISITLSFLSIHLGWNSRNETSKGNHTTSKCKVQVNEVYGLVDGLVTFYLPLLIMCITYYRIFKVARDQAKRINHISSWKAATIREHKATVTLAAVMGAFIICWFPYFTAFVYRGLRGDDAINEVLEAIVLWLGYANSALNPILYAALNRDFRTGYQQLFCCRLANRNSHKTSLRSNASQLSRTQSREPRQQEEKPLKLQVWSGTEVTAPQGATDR

| Structure (SMILES) | inhibition at 1 µM ([1]; compound at 1 μM, CHO cells) [%] | inhibition at 1 µM ([2]; compound at 1 μM, CHO K1 cells) [%] | inhibition at 1 µM ([3]; compound at 1 μM, CHO-K1 cells) [%] | inhibition at 1 µM [4, 5] [%] | inhibition at 1 µM [1] [%] | inhibition at 1 µM [2] [%] | inhibition at 1 µM [3] [%] | inhibition at 1 µM [4] [%] |
| --- | --- | --- | --- | --- | --- | --- | --- | --- |
| CCOC(=O)CCn1c2c(c3cc(C)ccc31)CN(C)CC2 [CD1, ethyl 3-(1,2,3,4-tetrahydro-2,8-dimethylpyrido[4,3-b]indol-5-yl)propanoate] | 101 | 35 | 93 | 54 |  |  |  |  |
| CCOC(=O)CCn1c2c(c3cc(Cl)ccc31)CN(C)CC2 [CD17, ethyl 3-(8-chloro-1,2,3,4-tetrahydro-2-methylpyrido[4,3-b]indol-5-yl)propanoate] | 100 | 46 | 96 | 70 |  |  |  |  |
| CN1CCc2c(c3cc(Cl)ccc3n2CC(=O)O)C1 [CD46, 2-(8-chloro-1,2,3,4-tetrahydro-2-methylpyrido[4,3-b]indol-5-yl)acetic acid] | 69 | -3 | 30 | 10 |  |  |  |  |
| Cc1ccc2c(c1)c1c(n2CCC(=O)O)CCN(C)C1 [CD47, 3-(1,2,3,4-tetrahydro-2,8-dimethylpyrido[4,3-b]indol-5-yl)propanoic acid] | 25 | 16 | 25 | 6 |  |  |  |  |
| CN1CCc2c(c3cc(Cl)ccc3n2CCC(=O)O)C1 [CD55, 3-(8-chloro-1,2,3,4-tetrahydro-2-methylpyrido[4,3-b]indol-5-yl)propanoic acid] | 22 | -2 | 11 | 14 |  |  |  |  |
| CCOC(=O)Cn1c2c(c3cc(C)ccc31)CN(C)CC2 [CD57, ethyl 2-(1,2,3,4-tetrahydro-2,8-dimethylpyrido[4,3-b]indol-5-yl)acetate] | 100 | 28 | 96 | 39 |  |  |  |  |
| Cc1ccc2c(c1)c1c(n2CC(=O)O)CCN(C)C1 [CD58, 2-(1,2,3,4-tetrahydro-2,8-dimethylpyrido[4,3-b]indol-5-yl)acetic acid] | 5 | 5 | -19 | 0 |  |  |  |  |
| Cc1ccc2c(c1)c1c(n2CC#N)CCN(C)C1 [CD61, 2-(1,2,3,4-tetrahydro-2,8-dimethylpyrido[4,3-b]indol-5-yl)acetonitrile] | 98 | 15 | 73 | 74 |  |  |  |  |
| Cc1ccc2c(c1)c1c(n2CCN)CCN(C)C1 [CD62, 2-(1,2,3,4-tetrahydro-2,8-dimethylpyrido[4,3-b]indol-5-yl)ethanamine] | 44 | 65 | 28 | 34 |  |  |  |  |
| C#CCn1c2c(c3cc(C)ccc31)CN(C)CC2 [CD73, 2,8-dimethyl-5-(prop-2-ynyl)-2,3,4,5-tetrahydro-1H-pyrido[4,3-b]indole] | 96 | 19 | 92 | 57 |  |  |  |  |
| CN1CCc2c(c3cc(Cl)ccc3n2CCCO)C1 [CD87, 3-(8-chloro-2-methyl-3,4-dihydro-1H-pyrido[4,3-b]indol-5(2H)-yl)propan-1-ol] | 97 | 18 | 79 | 75 |  |  |  |  |
| CN1CCc2c(c3cc(Cl)ccc3n2CCBr)C1 [CD88, 5-(2-bromoethyl)-8-chloro-2-methyl-2,3,4,5-tetrahydro-1H-pyrido[4,3-b]indole] |  |  |  |  | 98 | 64 | 84 | 94 |
| Cc1ccc2c(c1)c1c(n2CCNC(=O)C2CCCNC2)CCN(C)C1 (stereo not drawn) [Compound 9, N-(2-(1,2,3,4-tetrahydro-2,8-dimethylpyrido[4,3-b]indol-5-yl)ethyl)piperidine-3-carboxamide] |  | -44 | 29 | 11 |  |  |  |  |
